Measured values as given in patent publication US20050288369A1, “Novel n-hydroxy thiourea, urea and amide compounds and the pharmaceutical compositions comprising the same” (priority 2002, published 2005).

Experiments:
[1] = biological target: T1, vanilloid receptor-1 (VR1) (Rattus norvegicus, UniProt O35433); assay: [3H]RTX competition binding assay, VR1-expressing CHO cells; conditions: displacement of bound [3H]RTX; mean±SEM, 3 experiments
T1 construct: expressed in transfected cells; host or cells: Chinese Hamster Ovary cells (CHO, ATCC CCL-61), Tet-off inducible expression
Procedure: The binding affinity activity of the target compounds for vanilloid receptor-1 was measured by an in vitro receptor binding affinity assay. In the receptor binding assay, the compounds were evaluated for their ability to displace bound [^3H]RTX from the receptor. The results are expressed in terms of Ki values (mean±SEM, 3 experiments) which represent the concentration of the non-radioactive ligand that displaces half of the bound labeled RTX.
The VR receptor binding affinity activity of the inventive compounds was measured by using Chinese Hamster Ovary (CHO, ATCC, No. CCL-61) cell whose cDNA of VR1 (pUHG102 VR1 plasmid) was transfected, which can control the expression of VR1 according to the presence of tetracycline and Tetracycline on/off system (pTet off regulatory plasmid, Clontech. Inc., USA) that the expression of VR1 is induced by removing tetracycline from the medium. […] The cells were cultured after removing tetracycline prior to 48 hours. The tetracycline free culture medium was seeded at the bottom of T75 flask, incubated to the extent that its density reaches at 90%, and washed once with PBS buffer solution. The cells were collected by using saline solution containing 5 mM EDTA and subjected to centrifugation slightly to obtain precipitates, further, which had been kept at the temperature of −20° C. before use.
Experiments were designed to assess inhibition of specific [^3H]RTX binding to membranes by non-radioactive compounds. The binding assay mixture containing [^3H]RTX ([…]), various concentrations of competitive binding substances, 0.25 mg/ml of BSA (Cohn fraction V), 5×10^4 ˜5×10^5 numbers of VR1 and the expression cell, was admixed with saline solution containing 450 μl of Ca^2+ and Mg^2+ and […] of BSA. Non-specific binding assay was measured after mixing 100 nM of non-radioactive RTX thereto. The reaction mixture was treated for 60 min at 37° C. and the reaction was quenched by cooling over ice. RTX bound to the membrane of VR1 was subjected to centrifugation with maximum velocity for 15 minutes to precipitate its membrane residue, which results in separating from non-binding RTX. The tips of tube containing above precipitate was cut off and the amount of bound radioisotope was determined by scintillation counter (LS6500, Beckman-Coulter, USA). The measurement of binding was determined in triplicate in each experiment, and each experiment was repeated at least two times. Binding data were analyzed by fitting to the Hill equation and the Ki (equilibrium binding parameter) index, the Bmax (maximum binding parameter) index, and the cooperativity index etc., were determined by using origin 6.0 program (Origin, MicroCal Co., USA).
An initial compound was dissolved in DMSO (dimethyl sulfoxide) and diluted with saline solution containing Ca^2+ and […], and […] of BSA.

VR1 [2] = biological target: T2, VR1 (Rattus norvegicus, UniProt O35433); assay: 45Ca influx test in CHO cells expressing VR1, antagonistic activity against 50 nM capsaicin; format: cell-based; conditions: 45Ca uptake stimulated with 50 nM capsaicin
T2 construct: expressed in transfected cells; host or cells: Chinese Hamster Ovary cells (CHO, ATCC CCL-61), Tet-off inducible expression
Procedure: (§1) The ^45Ca Influx test by using CHO cells of the inventive compounds was measured by using Chinese Hamster Ovary (CHO, ATCC, No. CCL-61) cell whose cDNA of VR1 (pUHG102 VR1 plasmid) was transfected, which can control the expression of VR1 according to the presence of tetracycline and Tetracycline on/off system (pTet off regulatory plasmid, Clontech. Inc., USA) that the expression of VR1 is induced by removing tetracycline from the medium.
(§2) The CHO cells were poured onto 24 well plates to the extent that its density reaches at 30% and incubated for 24 hours at 37° C. The culture medium was exchanged to tetracycline free medium to induce the expression of VR1 and tested after 36 hours.
(§3) Together with 0.25 mg/ml BSA (Sigma A2153, USA), 1 Ci/ml ^45Ca(5-30 Ci/g used, ICN. Co., 62005 RT, U.S.A.), the test samples with increasing concentrations were added to each well. At the quenching moment of the incubation with ^45Ca, the cultured cells were removed from the medium, washed three times with cool PBS buffer solution containing 1.8 mM CaCl2 and 400 μl of RIPA buffer solution (50 mM Tris pH 7.4; 150 mM sodium chloride; 0.1% SDS; 1% sodium deoxycholate), was added in each well to homogenize the cells. The plates were stirred for 20 minutes slowly and 300 μl of cell lysate was transferred to scintillation vials from each wells. The radioactivity was determined by scintillation counter.
(§4) The data were assessed by determining four wells per each data point in each experiment and analyzed in computer by being transformed into Hill equation. The experiments were determined in triplicate in each sample comprising inventive compounds and control groups.
In order to determine the antagonistic activity, ^45Ca^2+-uptake stimulating-mixture was added with 50 nM capsaicin and the antagonistic activity was determined by the method for the agonistic activity. In case that 10 μM a certain compound cannot change the capsaicin-inducing activity, the compound shall be regarded as an […].

VR1 [3] = biological target: T2, VR1; assay: 45Ca influx test in CHO cells expressing VR1, agonistic activity; format: cell-based; conditions: 45Ca uptake
Procedure: The ^45Ca Influx test by using CHO cells expressing VR1 was performed by the procedure described in the literature (Lee, J. W., Bioorganic & Medicinal Chemistry, pp 1713-1720, 2001).
as §1, §2
as §3, with “In radioactive ^45Ca uptake experiment, The cells were incubated in […] of DMEM medium (Dulbecco's modified Eagles medium: Gibco-BRL, 31600-083) containing free of serum and 1.8 mM CaCl2 for 10 minutes at 37*C. Together” for “Together”
as §4

Male ICR mice = assay: Acetic acid-induced writhing test; format: in vivo; conditions: for ED50: Mus musculus, ip, i.p. 30 mins before 1.2% acetic acid i.p., 50% reduction of the number of writhes; for analgesic effect compared with thiourea compounds JYL-827 and 1433: writhing test
Procedure: The acetic acid-induced writhing test for testing the analgesic activity of inventive compounds prepared from above Examples was performed by the procedure described in the literature (Lee, J. W., Bioorganic & Medicinal Chemistry, pp 1713-1720, 2001).
Male ICR mice having its mean body weight of 25 g (CD-1; Biogenomics Co. Korea) were reared in lighting controlled environment (12 hrs on/12 hrs off) maintaining with temperatures at 22±2° C. and humidity at 50±5% and allowed to eat a diet and to drink tap water ad lib.
Mice were fasted overnight prior to testing and adopted to the environment.
0.3 ml of acetic acid solution (1.2%) was administrated in the mice intraperitoneally and then the mice were put into the transparent acryl box (15×15×15 cm). 5 minutes later, the number of abdominal constrictions was counted for 20 minutes. Each group consisting of ten mice was pretreated with test compounds or solvent (0.2 ml, i.p.) 30 mins before the injection of acetic acid. Test compounds were dissolved in the mixture of ethanol/Tween-80/saline ([…]) or cremophor EL/DMSO/d-water ([…]).
Analgesic activity of each drug was determined at several different concentrations.
The index of analgesic activity (eff) was defined as below Empirical formula 1. Analgesic activity (eff)=100−{(No. of abdominal constriction of test group/No. of abdominal constriction of control group)×100} [Empirical formula 1]
Analgesic activity was expressed as the reduction in the number of abdominal constrictions, of control animals (vehicle-pretreated mice) and animals pretreated with test compounds.

T2 sequence (O35433 whole entry): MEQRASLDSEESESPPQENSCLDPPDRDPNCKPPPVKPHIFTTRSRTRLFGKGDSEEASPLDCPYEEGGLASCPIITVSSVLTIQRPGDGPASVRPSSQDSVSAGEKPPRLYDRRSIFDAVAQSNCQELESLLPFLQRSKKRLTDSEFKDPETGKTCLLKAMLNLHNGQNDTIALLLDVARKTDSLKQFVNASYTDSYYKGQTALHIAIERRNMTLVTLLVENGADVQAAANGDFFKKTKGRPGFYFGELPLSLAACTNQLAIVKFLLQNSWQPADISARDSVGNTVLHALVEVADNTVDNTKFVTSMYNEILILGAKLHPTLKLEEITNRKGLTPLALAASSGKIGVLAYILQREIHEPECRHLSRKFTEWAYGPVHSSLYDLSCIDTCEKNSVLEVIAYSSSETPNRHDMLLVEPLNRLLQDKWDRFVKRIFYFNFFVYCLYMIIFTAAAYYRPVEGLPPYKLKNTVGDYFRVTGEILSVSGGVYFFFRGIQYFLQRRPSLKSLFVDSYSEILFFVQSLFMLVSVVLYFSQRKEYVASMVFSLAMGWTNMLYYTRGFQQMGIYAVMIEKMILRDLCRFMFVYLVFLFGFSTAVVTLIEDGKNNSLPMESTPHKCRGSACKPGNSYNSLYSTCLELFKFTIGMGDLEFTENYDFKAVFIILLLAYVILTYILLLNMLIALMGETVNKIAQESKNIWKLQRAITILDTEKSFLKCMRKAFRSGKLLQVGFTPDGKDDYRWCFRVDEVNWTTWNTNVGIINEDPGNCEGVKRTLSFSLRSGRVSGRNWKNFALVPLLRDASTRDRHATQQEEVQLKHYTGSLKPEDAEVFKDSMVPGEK
T1 sequence (O35433 whole entry): as above

SMILES | Ki [1] | IC50 (VR1 [2]) | melting point | EC50 (VR1 [3]) | ED50 (Male ICR mice) | analgesic effect compared with thiourea compounds JYL-827 and 1433 (Male ICR mice) | analgesic effect, fold stronger than that of Ketorolac (Male ICR mice; ratio of writhing test ED50 values)
CC(C)(C)c1ccc(CNC(=S)N(O)Cc2ccc(NS(C)(=O)=O)cc2)cc1 [Compound 60, N-(4-tert-butylbenzyl)-N-hydroxy-N-[4-(methylsulfonylamino)benzyl]thiourea] | 4260 nM | 465 nM | 124 °C |  |  |  | 
COc1cc(CNC(=S)N(O)Cc2ccc(C(C)(C)C)cc2)ccc1NS(C)(=O)=O [Compound 29, N-(4-tert-butylbenzyl)-N-hydroxy-N-[3-methoxy-4-(methylsulfonylamino)benzyl]thiourea] |  |  | 112.5 to 115 °C | 2010 nM | 0.103 µg/kg |  | 
Cc1ccc(CC(COC(=O)C(C)(C)C)CN(O)C(=S)NCc2ccc(NS(C)(=O)=O)cc2)cc1C (centres unmarked) [Compound 35, N-[2-(3,4-dimethylbenzyl)-3-(pivaloyloxy)propyl]-N-hydroxy-N-[4-(methylsulfonylamino)benzyl]thiourea] | 1040 nM | 212 nM |  | 1230 nM | 2.6 µg/kg | stronger analgesic effect | 
CC(C)(C)c1ccc(CN(O)C(=S)NCc2ccc(NS(C)(=O)=O)c(F)c2)cc1 [Compound 30, N-(4-tert-butylbenzyl)-N-hydroxy-N-[3-fluoro-4-(methylsulfonylamino)benzyl]thiourea] | 802 nM |  | 124 to 126 °C | > 7060 nM | 1.07 µg/kg |  | 
CC(C)(C)c1ccc(CN(O)C(=O)Cc2ccc(NS(C)(=O)=O)cc2)cc1 [Compound 45, N-(4-tert-butylbenzyl)-N-hydroxy-[4-(methylsulfonylamino)phenyl] acetamide] | 6380 nM | 6590 nM | 161 to 163 °C | 3500 nM |  |  | 
CC(C)(C)c1ccc(CNC(=O)N(O)Cc2ccc(NS(C)(=O)=O)cc2)cc1 [Compound 62, N-(4-tert-butylbenzyl)-N-hydroxy-N-[4-(methylsulfonylamino)benzyl]urea] |  |  | 125 °C | 1060 nM |  |  | 
Cc1ccc(CC(COC(=O)C(C)(C)C)CN(O)C(=S)NCc2ccc(NS(C)(=O)=O)c(F)c2)cc1C (centres unmarked) [Compound 37, N-[2-(3,4-dimethylbenzyl)-3-(pivaloyloxy)propyl]-N-hydroxy-N-[3-fluoro-4-(methylsulfonylamino)benzyl]thiourea] | 212 nM | 93.7 nM |  |  |  | stronger analgesic effect | 43,000 fold
CC(C)(C)c1ccc(CN(O)C(=S)NCc2ccc(NS(C)(=O)=O)cc2)cc1 [Compound 28, N-(4-tert-butylbenzyl)-N-hydroxy-N-[4-(methylsulfonylamino)benzyl]thiourea] | 1090 nM | 470 nM | 137 °C |  | 1560 µg/kg |  | 
